Results published in PubChem BioAssay (NCI).
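Briefly, cells in 96-well plates were exposed to five compound concentrations for 48 h, and endpoints were estimated by linear interpolation. GI50 = concentration required for 50% inhibition of growth. TGI marks complete inhibition of growth.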

Columns and labels:
Test in all cases: NCI-60 cell line screen, 48 h
SF-268 CNS = tested on: SF-268 CNS
BT-549 breast = tested on: BT-549 breast
MALME-3M melanoma = tested on: MALME-3M melanoma
OVCAR-3 ovarian = tested on: OVCAR-3 ovarian
SNB-75 CNS = tested on: SNB-75 CNS
NCI-H226 lung = tested on: NCI-H226 lung
ACHN renal = tested on: ACHN renal
COLO 205 colon = tested on: COLO 205 colon
IGROV1 ovarian = tested on: IGROV1 ovarian
PC-3 prostate = tested on: PC-3 prostate
MCF7 breast = tested on: MCF7 breast
OVCAR-4 ovarian = tested on: OVCAR-4 ovarian
U251 CNS = tested on: U251 CNS
A498 renal = tested on: A498 renal
HCT-15 colon = tested on: HCT-15 colon
SF-539 CNS = tested on: SF-539 CNS
EKVX NSCLC = tested on: EKVX NSCLC
MDA-MB-435 = tested on: MDA-MB-435
SK-OV-3 ovarian = tested on: SK-OV-3 ovarian
CAKI-1 renal = tested on: CAKI-1 renal
SK-MEL-28 melanoma = tested on: SK-MEL-28 melanoma
SN12C renal = tested on: SN12C renal
MDA-MB-231 breast = tested on: MDA-MB-231 breast
HCC-2998 colon = tested on: HCC-2998 colon
SW-620 colon = tested on: SW-620 colon
DU-145 prostate = tested on: DU-145 prostate
HOP-62 NSCLC = tested on: HOP-62 NSCLC
OVCAR-5 ovarian = tested on: OVCAR-5 ovarian
RXF 393 renal = tested on: RXF 393 renal
RPMI-8226 leukemia = tested on: RPMI-8226 leukemia
K-562 leukemia = tested on: K-562 leukemia
HCT-116 colon = tested on: HCT-116 colon
SF-295 CNS = tested on: SF-295 CNS
SK-MEL-5 melanoma = tested on: SK-MEL-5 melanoma
HL-60(TB) leukemia = tested on: HL-60(TB) leukemia
HT29 colon = tested on: HT29 colon
SK-MEL-2 melanoma = tested on: SK-MEL-2 melanoma
UO-31 renal = tested on: UO-31 renal
UACC-257 melanoma = tested on: UACC-257 melanoma
A549 NSCLC = tested on: A549 NSCLC
SR leukemia = tested on: SR leukemia
KM12 colon = tested on: KM12 colon
HOP-92 NSCLC = tested on: HOP-92 NSCLC
OVCAR-8 ovarian = tested on: OVCAR-8 ovarian
LOX IMVI melanoma = tested on: LOX IMVI melanoma
HS 578T breast = tested on: HS 578T breast
NCI/ADR-RES ovarian = tested on: NCI/ADR-RES ovarian
T-47D breast = tested on: T-47D breast
SNB-19 CNS = tested on: SNB-19 CNS
MOLT-4 leukemia = tested on: MOLT-4 leukemia
UACC-62 melanoma = tested on: UACC-62 melanoma
NCI-H522 lung = tested on: NCI-H522 lung
NCI-H460 lung = tested on: NCI-H460 lung
786-0 renal = tested on: 786-0 renal
TK-10 renal = tested on: TK-10 renal
M14 melanoma = tested on: M14 melanoma

For `CCn1c2ccc(/C=N/OCCCN(C)C)cc2c2cc(/C=N/OCCCN(C)C)ccc21`, the GI50 (SF-268 CNS) was 3.69 µM, the TGI (SF-268 CNS) was 14.2 µM and the GI50 (BT-549 breast) was 1710 nM. The TGI (BT-549 breast) was 3.22 µM, the GI50 (MALME-3M melanoma) was 1800 nM and the TGI (MALME-3M melanoma) was 3.4 µM. For the same molecule, the GI50 (OVCAR-3 ovarian) was 2080 nM, the TGI (OVCAR-3 ovarian) was 5.28 µM and the GI50 (SNB-75 CNS) was 1680 nM. The TGI (SNB-75 CNS) was 3.93 µM, the GI50 (NCI-H226 lung) was 10 µM and the TGI (NCI-H226 lung) was 25.2 µM. The GI50 (ACHN renal) was 1720 nM, the TGI (ACHN renal) was 3.13 µM and the GI50 (COLO 205 colon) was 1610 nM. It also gave a TGI (COLO 205 colon) of 3.05 µM, a GI50 (IGROV1 ovarian) of 3.08 µM and a TGI (IGROV1 ovarian) of 10.3 µM. The GI50 (PC-3 prostate) was 2510 nM, the TGI (PC-3 prostate) was 10.9 µM and the GI50 (MCF7 breast) was 1490 nM. The TGI (MCF7 breast) was 3.07 µM, the GI50 (OVCAR-4 ovarian) was 1730 nM and the TGI (OVCAR-4 ovarian) was 3.35 µM. It also gave a GI50 (U251 CNS) of 1620 nM, a TGI (U251 CNS) of 3.14 µM and a GI50 (A498 renal) of 4.45 µM. It also gave a TGI (A498 renal) of 17.2 µM, a GI50 (HCT-15 colon) of 1750 nM and a TGI (HCT-15 colon) of 3.96 µM. The GI50 (SF-539 CNS) was 1620 nM, the TGI (SF-539 CNS) was 2990 nM and the GI50 (EKVX NSCLC) was 3.26 µM. It also gave a TGI (EKVX NSCLC) of 13.7 µM, a GI50 (MDA-MB-435) of 1480 nM and a TGI (MDA-MB-435) of 2840 nM. For the same molecule, the GI50 (SK-OV-3 ovarian) was 16.4 µM, the TGI (SK-OV-3 ovarian) was 31.2 µM and the GI50 (CAKI-1 renal) was 1430 nM. It also gave a TGI (CAKI-1 renal) of 2740 nM, a GI50 (SK-MEL-28 melanoma) of 1650 nM and a TGI (SK-MEL-28 melanoma) of 3.18 µM. It also gave a GI50 (SN12C renal) of 9.08 µM, a TGI (SN12C renal) of 21.5 µM and a GI50 (MDA-MB-231 breast) of 2230 nM. The TGI (MDA-MB-231 breast) was 5.34 µM, the GI50 (HCC-2998 colon) was 1510 nM and the TGI (HCC-2998 colon) was 2950 nM. For the same molecule, the GI50 (SW-620 colon) was 1810 nM, the TGI (SW-620 colon) was 3.78 µM and the GI50 (DU-145 prostate) was 3.46 µM. It also gave a TGI (DU-145 prostate) of 12.3 µM, a GI50 (HOP-62 NSCLC) of 4.64 µM and a TGI (HOP-62 NSCLC) of 18.9 µM. It also gave a GI50 (OVCAR-5 ovarian) of 2880 nM, a TGI (OVCAR-5 ovarian) of 11.5 µM and a GI50 (RXF 393 renal) of 1180 nM. It also gave a TGI (RXF 393 renal) of 2490 nM, a GI50 (RPMI-8226 leukemia) of 1770 nM and a TGI (RPMI-8226 leukemia) of 4.08 µM. For the same molecule, the GI50 (K-562 leukemia) was 1490 nM, the TGI (K-562 leukemia) was 3.63 µM and the GI50 (HCT-116 colon) was 1270 nM. It also gave a TGI (HCT-116 colon) of 2700 nM, a GI50 (SF-295 CNS) of 1940 nM and a TGI (SF-295 CNS) of 3.82 µM. The GI50 (SK-MEL-5 melanoma) was 1800 nM, the TGI (SK-MEL-5 melanoma) was 3.23 µM and the GI50 (HL-60(TB) leukemia) was 1680 nM. For the same molecule, the TGI (HL-60(TB) leukemia) was 3.95 µM, the GI50 (HT29 colon) was 1520 nM and the TGI (HT29 colon) was 3.51 µM. For the same molecule, the GI50 (SK-MEL-2 melanoma) was 15.7 µM, the TGI (SK-MEL-2 melanoma) was 30.3 µM and the GI50 (UO-31 renal) was 1500 nM. For the same molecule, the TGI (UO-31 renal) was 3.24 µM, the GI50 (UACC-257 melanoma) was 1680 nM and the TGI (UACC-257 melanoma) was 3.09 µM. For the same molecule, the GI50 (A549 NSCLC) was 1590 nM, the TGI (A549 NSCLC) was 3.01 µM and the GI50 (SR leukemia) was 1830 nM. The TGI (SR leukemia) was 4.38 µM, the GI50 (KM12 colon) was 3.24 µM and the TGI (KM12 colon) was 13.7 µM. The GI50 (HOP-92 NSCLC) was 1700 nM, the TGI (HOP-92 NSCLC) was 8.22 µM and the GI50 (OVCAR-8 ovarian) was 2070 nM. It also gave a TGI (OVCAR-8 ovarian) of 4.88 µM, a GI50 (LOX IMVI melanoma) of 1500 nM and a TGI (LOX IMVI melanoma) of 2940 nM. It also gave a GI50 (HS 578T breast) of 2520 nM, a TGI (HS 578T breast) of 7.95 µM and a GI50 (NCI/ADR-RES ovarian) of 1970 nM. It also gave a TGI (NCI/ADR-RES ovarian) of 4.89 µM, a GI50 (T-47D breast) of 1800 nM and a TGI (T-47D breast) of 3.82 µM. The GI50 (SNB-19 CNS) was 3.65 µM, the TGI (SNB-19 CNS) was 14 µM and the GI50 (MOLT-4 leukemia) was 1920 nM. It also gave a TGI (MOLT-4 leukemia) of 6.21 µM, a GI50 (UACC-62 melanoma) of 1920 nM and a TGI (UACC-62 melanoma) of 3.87 µM. It also gave a GI50 (NCI-H522 lung) of 1730 nM, a TGI (NCI-H522 lung) of 3.43 µM and a GI50 (NCI-H460 lung) of 2020 nM. The TGI (NCI-H460 lung) was 4.36 µM, the GI50 (786-0 renal) was 1550 nM and the TGI (786-0 renal) was 3.2 µM. It also gave a GI50 (TK-10 renal) of 14.1 µM, a TGI (TK-10 renal) of 28.2 µM and a GI50 (M14 melanoma) of 1700 nM. It also gave a TGI (M14 melanoma) of 3.23 µM.
